Measurements as given in US7462630B2, “Diarylalkene derivatives and novel diarylalkane derivatives” (Ajinomoto Co., Inc., priority 2001, dated 2008).

Columns and labels:
[1] = tested on: Sprague-Dawley (SD) rats, formalin-induced flinching; test: Analgesic effects in the formalin test; type: in vivo, rat
Method: Four test groups each composed of 7 male Sprague-Dawley: SD rats (9 weeks old) were used for the experiment. In the control group, 0.5% tragacanth solution was given to the rats. In other test groups, 0.3, 3 or 30 mg/kg of the compound obtained in Example 11 (compound A) was given to them. Compound A was used in the form of a suspension thereof in 0.5% tragacanth solution.
Five ml/kg of 0.5% tragacanth solution or compound A was orally administered to the rats. Three hours after, the rats were tranquilized with halothane, and 2.5% formalin solution (100 μl) was injected subcutaneously to dorsal surface of the left hindpaw. Immediately thereafter, the rats were awaken from the anesthesia. […] The number of times of retracting action, i.e., flinching action of the hindpaw in which formalin had been injected, was counted for 1 minute at an interval of one minute until 5 minutes after the formalin injection, and for 1 minute at an interval of 5 minutes from 10 to 60 minutes after the injection. As reported in a literature (J. Pharmacol. Exp. Ther. 263: 136-146, 1992), the pain reaction by the stimulation with formalin appeared in two phases. The total number of times of the flinching action observed 10 to 60 minutes after the formalin injection (the second phase) was taken as the index of the pain action.
The experiment was conducted in the same manner as that in above Test Example 3 except for the followings.
Five test groups each composed of 6 male Sprague-Dawley (SD) rats (9 weeks old) were used for the experiment. In the control group, polyethylene glycol 400 was given to the rats. In the other test groups, 3, 30, 100 or 300 mg/kg of the compound obtained in Example 71 (compound B) was given to them. Compound B was used in the form of a solution thereof in polyethylene glycol 400 (PEG).
Three ml/kg of PEG or compound B was orally administered to the rats.

[2] = tested on: Sprague-Dawley (SD) rats, partial sciatic nerve ligation (Seltzer model); test: Analgesic effects on a neuropathic pain model (partial sciatic nerve ligation model, mechanical allodynia, von Frey filaments); type: in vivo, rat; conditions: one hour after administration
Method: The effect of compound A in improving mechanical allodynia was evaluated using the partial sciatic nerve ligation model (Seltzer model, Pain, 43: 205-218, 1990) which belongs to the neuropathic pain models. For detecting the mechanical allodynia, the sole of the right paw of each rat was stimulated with von Frey filaments, and the threshold of the reaction for the mechanical stimulation (50% threshold) was determined according to a method of Chaplan et al. (J. Neurosci. Methods, 53: 55-63, 1994). In this step, the stimulation of the sole of the paw with each filament was repeated 8 times at a rate of about twice a second.
About a half thickness of the right sciatic nerve of each 8 week-old male Sprague-Dawley (SD) rat, whose reaction threshold was determined before the nerve injury, was ligated with a surgical suture to partially injure the nerve according to a method of Seltzer et al. (Pain, 43: 205-218, 1990). Six days after the nerve injury, the reaction threshold of the right hindpaw was determined and compared with that determined before the nerve injury. Individuals having a threshold far lower than that determined before the nerve injury [i.e. rats showing mechanical allodynia] were selected for evaluating allodynia improving effect. Seven and 9 days after the nerve injury, the reaction threshold of the rats selected for the purpose of the evaluation was determined before compound administration. […] One hour after the administration, the reaction threshold of each rat was determined.
The effect of compound B in improving mechanical allodynia was evaluated using the partial sciatic nerve ligation model (Seltzer model, Pain, 43: 205-218, 1990) which belongs to the neuropathic pain models. […] Six days after the nerve injury, the reaction threshold of the right hindpaw was determined and was compared with that determined before the nerve injury. Individuals having a threshold far lower than that determined before the nerve injury [i.e. rats showing mechanical allodynia] were selected for evaluating allodynia improving effect. […]

Row | SMILES | inhibiting ratio of flinches (second phase, 10 to 60 min) based on control group ([1]; 0.3 mg/kg oral, suspension in 0.5% tragacanth, 3 hours before formalin) | inhibiting ratio of flinches (second phase, 10 to 60 min) based on control group ([1]; 3 mg/kg oral, suspension in 0.5% tragacanth, 3 hours before formalin) | inhibiting ratio of flinches (second phase, 10 to 60 min) based on control group ([1]; 30 mg/kg oral, suspension in 0.5% tragacanth, 3 hours before formalin) | reaction threshold for mechanical stimulation (50% threshold) after the administration ([2]; 3 mg/kg oral in 0.5% tragacanth) | inhibiting ratio of flinches (second phase, 10 to 60 min) based on control group ([1]; 3 mg/kg oral, solution in polyethylene glycol 400) | inhibiting ratio of flinches (second phase, 10 to 60 min) based on control group ([1]; 30 mg/kg oral, solution in polyethylene glycol 400) | inhibiting ratio of flinches (second phase, 10 to 60 min) based on control group ([1]; 100 mg/kg oral, solution in polyethylene glycol 400) | inhibiting ratio of flinches (second phase, 10 to 60 min) based on control group ([1]; 300 mg/kg oral, solution in polyethylene glycol 400) | reaction threshold for mechanical stimulation (50% threshold) after the administration ([2]; 3 mg/kg oral in PEG) | reaction threshold for mechanical stimulation (50% threshold) after the administration ([2]; 100 mg/kg oral in PEG)
1 | CC(C)(C)C(=O)NCCC(=O)N1CCC(=C2c3ccccc3C=Cc3ccccc32)CC1 [Example 11, N-{3-[4-(5H-dibenzo[a,d][7]annulen-5-ylidene)-1-piperidinyl]-3-oxopropyl}-2,2-dimethylpropanamide] | 10% | 42% | 37% | increased | – | – | – | – | – | –
2 | CC(C)(C)C(=O)N[C@H](CO)CCC(=O)N1CCC(=C2c3ccccc3C=Cc3ccccc32)CC1 [Example 71, (S)-N-[4-[4-(5H-dibenzo[a,d][7]annulen-5-ylidene)-1-piperidinyl]-1-(hydroxylmethyl)-4-oxobutyl]-2.2-dimethylpropanamide] | – | – | – | – | 11% | 33% | 53% | 59% | hardly changed | clearly increased
